Like-named read-outs stand apart in the source and are kept apart here.
Tested on: C. elegans
Assay: microbe, parasite or virus in culture
Conditions: Caenorhabditis elegans
[1] = 0 h, read-out: Percentage of motility inhibition 0 h, Table S2, C. elegans SS assay, 110 μM, 0 h, averages of 4 data points
[2] = 24 h, read-out: Percentage of motility inhibition 24 h, Table S2, C. elegans SS assay, 110 μM, 24 h, averages of 4 data points
[3] = 0 h, read-out: Percentage of motility inhibition 0 h
[4] = 24 h, read-out: Percentage of motility inhibition 24 h

SMILES | inhibition at 110 µM [1] [%] | inhibition at 110 µM [2] [%] | inhibition at 110 µM [3] [%] | inhibition at 110 µM [4] [%]
C=C(NC(=O)C(=C)NC(=O)c1csc(C2=N[C@@H]3c4csc(n4)[C@H]4NC(=O)c5csc(n5)[C@H]([C@](C)(O)[C@@H](C)O)NC(=O)[C@H]5CSC(=N5)/C(=C/C)NC(=O)[C@H]([C@@H](C)O)NC(=O)c5csc(n5)[C@]3(CC2)NC(=O)[C@H](C)NC(=O)C(=C)NC(=O)[C@H](C)NC(=O)[C@H]([C@@H](C)CC)N[C@@H]2C=Cc3c([C@H](C)O)cc(nc3[C@H]2O)C(=O)O[C@@H]4C)n1)C(N)=O [Thiostrepton] | 11 | 31 | – | –
Cc1ccc(C(C)C)c(O)c1 [Thymol] | 54 | 28 | – | –
CN(C)c1cc(NC(=O)CNC(C)(C)C)c(O)c2c1C[C@H]1C[C@H]3[C@H](N(C)C)C(O)=C(C(N)=O)C(=O)[C@@]3(O)C(O)=C1C2=O [Tigecycline] | 31 | 19 | – | –
O=C(/C=C/c1ccc(O)cc1)OC[C@H]1O[C@@H](Oc2c(-c3ccc(O)cc3)oc3cc(O)cc(O)c3c2=O)[C@H](O)[C@@H](O)[C@@H]1O [Tiliroside] | – | – | 2 | 9
CCS(=O)(=O)CCn1c([N+](=O)[O-])cnc1C [Tinidazole] | 25 | 8 | – | –
Clc1ccc(C(Cn2ccnc2)OCc2ccsc2Cl)c(Cl)c1 (stereo not drawn) [Tioconazole] | 30 | 43 | – | –
O=C(Nc1ncc([N+](=O)[O-])s1)c1ccccc1O [Tizoxanide] | 40 | 53 | – | –
NC[C@H]1O[C@H](O[C@H]2[C@H](O)[C@@H](O[C@H]3O[C@H](CO)[C@@H](O)[C@H](N)[C@H]3O)[C@H](N)C[C@@H]2N)[C@H](N)C[C@@H]1O [Tobramycin] | 9 | 0 | – | –
COP(=S)(OC)Oc1c(Cl)cc(C)cc1Cl [Tolclofos‐methyl] | 35 | 20 | – | –
Cc1cccc(N(C)C(=S)Oc2ccc3ccccc3c2)c1 [Tolnaftate] | 25 | 26 | – | –
Cc1cc(-n2c(=O)[nH]c(=O)n(C)c2=O)ccc1Oc1ccc(SC(F)(F)F)cc1 [Toltrazuril] | 31 | 2 | – | –
C[C@H]1CC[C@]2(NC1)O[C@H]1C[C@H]3[C@@H]4CC[C@H]5C[C@@H](O)CC[C@]5(C)[C@H]4CC[C@]3(C)[C@H]1[C@@H]2C [Tomatidine] | 6 | 0 | – | –
CC(=O)O[C@@H]1C[C@H](O)[C@@]23CO[C@@H](O)[C@]1(C)[C@@H]2C[C@@H](O)[C@]1(C)[C@@H]3C(=O)[C@H](OC(C)=O)[C@@]2(C)[C@H](c3ccoc3)C[C@H]3O[C@]321 [Toosendanin] | 0 | 7 | – | –
O=C(O)c1cc(=O)c2ccccc2[nH]1 [Transtorine] | – | 0 | – | –
COc1cc(-c2cc(=O)c3c(O)cc(O)cc3o2)cc(OC)c1O [Tricin] | 31 | 2 | – | –
O=C(Nc1ccc(Cl)cc1)Nc1ccc(Cl)c(Cl)c1 [Triclocarban] | 15 | 20 | – | –
Oc1cc(Cl)ccc1Oc1ccc(Cl)cc1Cl [Triclosan] | 45 | 60 | – | –
OC[C@H]1O[C@@H](Oc2ccc3c(c2)OC[C@H]2c4cc5c(cc4O[C@@H]32)OCO5)[C@H](O)[C@@H](O)[C@@H]1O [Trifolirhizin] | 11 | 0 | – | –
C[n+]1cccc(C(=O)[O-])c1 [Trigonelline] | 0 | 0 | – | –
COc1cc(NCc2ccc3nc(N)nc(N)c3c2C)cc(OC)c1OC [Trimetrexate] | 15 | 0 | – | –
Cc1cc2cc3c(C)cc(=O)oc3c(C)c2o1 [Trioxsalen] | 6 | 7 | – | –
CC(C)c1ccc2c(c1O)CC[C@H]1C3=C(CC[C@]21C)C(=O)OC3 [Triptophenolide] | 11 | 40 | – | –
CN1[C@@H]2CC[C@H]1C[C@@H](O)C2 [Tropine] | 9 | 0 | – | –
O=C1c2ccccc2-n2c1nc1ccccc1c2=O [Tryptanthrin] | – | – | 11 | 0
Nc1ncnc2c1ccn2[C@@H]1O[C@H](CO)[C@@H](O)[C@H]1O [Tubercidin] | 5 | 0 | – | –
CC[C@@H]1[C@H]2CCCCN3[C@H]2[C@H](C[C@H]3[C@@H]2C[C@H](C)C(=O)O2)[C@@H]2[C@H]1OC(=O)[C@H]2C [Tuberostemonine] | 6 | 4 | – | –
CC[C@H]1OC(=O)C[C@@H](O)[C@H](C)[C@@H](O[C@@H]2O[C@H](C)[C@@H](O[C@H]3C[C@@](C)(O)[C@@H](O)[C@H](C)O3)[C@H](N(C)C)[C@H]2O)[C@@H](CC=O)C[C@@H](C)C(=O)/C=C/C(C)=C/[C@@H]1CO[C@@H]1O[C@H](C)[C@@H](O)[C@@H](OC)[C@H]1OC [Tylosin] | 22 | 0 | – | –

SMILES | inhibition at 110 µM [1] [%] | inhibition at 110 µM [2] [%] | inhibition at 110 µM [3] [%] | inhibition at 110 µM [4] [%]
O=c1cc[nH]c(=O)[nH]1 [Uracil] | 0 | 0 | – | –
O=c1ccn([C@@H]2O[C@H](CO)[C@@H](O)[C@H]2O)c(=O)[nH]1 [Uridine] | 0 | 10 | – | –
C[C@H]1[C@H](C)CC[C@]2(C(=O)O)CC[C@]3(C)C(=CC[C@@H]4[C@@]5(C)CC[C@H](O)C(C)(C)[C@@H]5CC[C@]43C)[C@H]12 [Ursolic acid] | 0 | 0 | – | –
C[C@H]1[C@H](C)CC[C@]2(C(=O)O)CC[C@]3(C)C(=CC[C@@H]4[C@@]5(C)CCC(=O)C(C)(C)[C@@H]5CC[C@]43C)[C@H]12 [Ursonic acid] | – | – | 18 | 23
C[C@H]1[C@H](C)CC[C@]2(CO)CC[C@]3(C)C(=CC[C@@H]4[C@@]5(C)CC[C@H](O)C(C)(C)[C@@H]5CC[C@]43C)[C@H]12 [Uvaol] | 19 | 2 | – | –
CC(C)(C)C#Cc1cc(N(C(=O)[C@H]2CC[C@H](C)CC2)[C@H]2CC[C@H](O)CC2)c(C(=O)O)s1 [VX‐222] | 48 | 57 | – | –
COc1cc(C=O)ccc1O [Vanillin] | 24 | 11 | – | –
COC[C@H]1C[C@@H](c2nc(-c3ccc4c(c3)COc3cc5c(ccc6nc([C@@H]7CC[C@H](C)N7C(=O)[C@@H](NC(=O)OC)C(C)C)[nH]c65)cc3-4)c[nH]2)N(C(=O)[C@H](NC(=O)OC)c2ccccc2)C1 [Velpatasvir] | 19 | 1 | – | –
COc1cc(O)c2c(=O)cc(-c3ccc(O)c(OC)c3)oc2c1 [Velutin] | 11 | 19 | – | –
Cc1c([C@H](C)[C@@H]2NC[C@@H](C)C[C@H]2O)ccc2c1C[C@H]1[C@H]2CC=C2C[C@@H](O)CC[C@@]21C [Veratramine] | – | – | 9 | 2
COc1ccc(C(=O)O[C@H]2CC[C@@]3(C)[C@@H]4CC[C@H]5[C@]6(O)C[C@H](O)[C@@]7(O)[C@@H](CN8C[C@@H](C)CC[C@H]8[C@@]7(C)O)[C@]6(O)C[C@@]53O[C@]24O)cc1OC [Veratridine] | 4 | 0 | – | –
CC1=CC(=O)[C@@H]2C[C@H]1C2(C)C [Verbenone] | 4 | 4 | – | –
Nc1nc(N)c(O[C@@H]2O[C@H](CO)[C@@H](O)[C@H](O)[C@H]2O)c(=O)[nH]1 [Vicine] | 0 | 0 | – | –
CC[C@]12CCCN3CCc4c(n(c5ccccc45)C(=O)C1)[C@@H]32 [Vinburnine] | 0 | – | – | –
CC[C@]12CCCN3CCc4c(n(c5ccccc45)[C@@](O)(C(=O)OC)C1)[C@@H]32 [Vincamine] | 0 | – | – | –
CCC12C=CCN3CC[C@@]4(c5ccc(OC)cc5N(C)[C@H]4[C@@](O)(C(=O)OC)[C@@H]1OC(C)=O)[C@@H]32 (stereo partly drawn) [Vindoline] | 14 | 0 | – | –
CCOC(=O)C1=C[C@]2(CC)CCCN3CCc4c(n1c1ccccc41)[C@@H]32 [Vinpocetine] | 0 | – | – | –
CC1=C(C/C=C(\C)CCC[C@H](C)CCC[C@H](C)CCCC(C)C)C(=O)c2ccccc2C1=O [Vitamin K1] | 6 | 13 | – | –
O=c1cc(-c2ccc(O)cc2)oc2c([C@@H]3O[C@H](CO)[C@@H](O)[C@H](O)[C@H]3O)c(O)cc(O)c12 [Vitexin] | 39 | 0 | – | –
CC=C1CN(C)C2Cc3c([nH]c4ccccc34)C(c3cc4[nH]c5c(c4cc3OC)CCN3CC4CC(CC)C3C5(C(=O)OC)C4)CC1C2C(=O)OC (stereo not drawn) [Voacamine] | 0 | 0 | – | –
CN1CC[C@]23C(=O)C[C@H]4C(=CCO[C@H]5CC(=O)N(c6c(O)cccc62)[C@H]3[C@H]54)C1 [Vomicine] | 0 | 0 | – | –
C[C@@H](c1ncncc1F)[C@](O)(Cn1cncn1)c1ccc(F)cc1F [Voriconazole] | 19 | 0 | – | –
CC(=O)OC[C@]12[C@H](OC(C)=O)[C@H](OC(C)=O)[C@@H]3[C@@H](OC(C)=O)[C@@]14O[C@@]3(C)COC(=O)c1cccnc1CCC(C)C(=O)O[C@@H]([C@H](OC(=O)c1ccco1)[C@@H]2OC(C)=O)[C@]4(C)O (stereo partly drawn) [Wilforgine] | 12 | 5 | – | –
CC(=O)OC[C@]12[C@H](OC(C)=O)[C@H](OC(C)=O)[C@@H]3[C@@H](OC(C)=O)[C@@]14O[C@@]3(C)COC(=O)c1cccnc1CCC(C)C(=O)O[C@@H]([C@H](OC(=O)c1ccccc1)[C@@H]2OC(C)=O)[C@]4(C)O (stereo partly drawn) [Wilforine] | 23 | 9 | – | –
COc1c(O)cc(O)c2c(=O)cc(-c3ccccc3)oc12 [Wogonin] | – | – | 23 | 5
COc1cc(O)c(CC=C(C)C)c(O)c1C(=O)/C=C/c1ccc(O)cc1 [Xanthohumol] | 23 | 13 | – | –

Reference: PMC11855827, “High-Throughput Screening of Five Compound Libraries for Anthelmintic Activity and Toxicity Leads to the Discovery of Two Flavonoid Compounds” (International Journal of Molecular Sciences, 2025)
